In series [1] the target is C-C chemokine receptor type 5 (Homo sapiens, UniProt P51681). Kind of series: Inhibition of human CCR5 expressed in CHO cells assessed as inhibition of RANTES-stimulated [35S]GTPgammaS binding. It is filed as functional, cell-based. For orientation: GTPγS resists hydrolysis and so accumulates on activated G proteins.
Series [2] has as its system Human immunodeficiency virus 1. Briefly: Antiviral activity against R5 tropic HIV1 BaL infected in human PBMC. The format is functional, organism-based. The following applies: Human immunodeficiency virus 1, BaL.
The next series deals with hERG (KCNH2) (Homo sapiens, UniProt Q12809). Briefly: Inhibition of human ERG at 1 uM.
Chain of hERG (KCNH2) (Q12809 whole entry): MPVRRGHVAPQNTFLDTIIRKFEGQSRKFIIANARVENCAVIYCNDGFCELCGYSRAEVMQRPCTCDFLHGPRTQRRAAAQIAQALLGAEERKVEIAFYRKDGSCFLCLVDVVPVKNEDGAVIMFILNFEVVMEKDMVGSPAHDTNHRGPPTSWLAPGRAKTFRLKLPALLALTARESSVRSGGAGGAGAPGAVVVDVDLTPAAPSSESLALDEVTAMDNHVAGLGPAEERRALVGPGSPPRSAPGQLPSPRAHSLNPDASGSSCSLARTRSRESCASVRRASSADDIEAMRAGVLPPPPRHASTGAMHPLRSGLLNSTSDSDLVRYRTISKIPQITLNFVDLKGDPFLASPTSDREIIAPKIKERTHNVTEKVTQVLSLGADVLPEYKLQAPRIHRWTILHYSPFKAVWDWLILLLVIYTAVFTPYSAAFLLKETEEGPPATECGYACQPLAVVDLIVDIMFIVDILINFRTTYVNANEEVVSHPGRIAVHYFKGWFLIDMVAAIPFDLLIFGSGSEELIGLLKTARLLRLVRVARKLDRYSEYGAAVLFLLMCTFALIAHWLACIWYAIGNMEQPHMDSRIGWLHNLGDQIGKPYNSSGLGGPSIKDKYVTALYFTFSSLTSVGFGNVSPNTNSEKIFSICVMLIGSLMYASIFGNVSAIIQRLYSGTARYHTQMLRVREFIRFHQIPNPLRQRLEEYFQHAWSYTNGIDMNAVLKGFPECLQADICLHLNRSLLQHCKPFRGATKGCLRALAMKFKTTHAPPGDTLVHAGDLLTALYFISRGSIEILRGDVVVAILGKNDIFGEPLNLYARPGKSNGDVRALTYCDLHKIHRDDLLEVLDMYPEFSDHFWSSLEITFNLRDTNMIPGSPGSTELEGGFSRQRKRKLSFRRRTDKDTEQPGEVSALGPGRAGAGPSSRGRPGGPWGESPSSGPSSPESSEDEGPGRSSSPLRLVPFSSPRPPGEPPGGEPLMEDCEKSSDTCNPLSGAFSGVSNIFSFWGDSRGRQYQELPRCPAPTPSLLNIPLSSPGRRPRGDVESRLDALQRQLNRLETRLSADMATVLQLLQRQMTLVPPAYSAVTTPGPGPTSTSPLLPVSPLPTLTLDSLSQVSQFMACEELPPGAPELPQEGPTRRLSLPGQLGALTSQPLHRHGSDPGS
A short description of series [3]: Cytotoxicity against human PBMC. It is filed as cell-based.

Chain of C-C chemokine receptor type 5 (P51681 whole entry): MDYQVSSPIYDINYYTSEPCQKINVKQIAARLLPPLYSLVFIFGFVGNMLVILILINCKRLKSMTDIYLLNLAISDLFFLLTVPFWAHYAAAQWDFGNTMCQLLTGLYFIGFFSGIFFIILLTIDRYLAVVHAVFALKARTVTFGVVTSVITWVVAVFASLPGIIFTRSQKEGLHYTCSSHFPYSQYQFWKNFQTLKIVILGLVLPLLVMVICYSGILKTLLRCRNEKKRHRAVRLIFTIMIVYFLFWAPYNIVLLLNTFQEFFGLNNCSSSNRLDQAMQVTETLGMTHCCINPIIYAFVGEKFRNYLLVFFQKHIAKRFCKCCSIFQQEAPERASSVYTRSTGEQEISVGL

As for `C=CCN(C(=O)NCc1ccc(C(F)(F)F)cc1)C1CCN(C[C@H]2CN(C(=O)C3CCCC3)C[C@]2(O)c2cccc(F)c2)CC1`, the 50% inhibitory concentration (IC50) (commonly the midpoint of a concentration-inhibition curve) in series [1] was 1.38 nM. Moreover, the midpoint of the response in series [2], the EC50, lay at 6 nM.
As to `C=CCN(C(=O)OCc1ccc([N+](=O)[O-])cc1)C1CCN(C[C@H]2CN(C(=O)C3CCCC3)C[C@]2(O)c2ccc(F)cc2)CC1`, in series [1], the IC50 turned out to be 30 nM. The EC50 (usually the concentration at which the effect is half-maximal) in series [2] is more than 100 nM.
The like results for `C=CCN(C(=O)OCc1ccc([N+](=O)[O-])cc1)C1CCN(C[C@H]2CN(C(=O)C3CCCC3)C[C@]2(O)c2cccc(F)c2)CC1` were, in that order, 8.85 nM and less than 0.4 nM.
In the case of `C=CCN(C(=O)NCc1ccc(C(F)(F)F)cc1)[C@@H]1C[C@H]2CC[C@@H](C1)N2C[C@H]1CN(C(=O)C2CCCC2)C[C@]1(O)c1cccc(F)c1`, the IC50 in series [1] was found to be 14.3 nM. This compound registered a 50% effective concentration (EC50) in series [2] of more than 100 nM. On hERG (KCNH2), the inhibition (usually the percentage by which the read-out fell short of the control) at 1 µM came to 88.6%. In series [3], the CC50 (commonly the concentration at which the toxic effect on the cells reaches its halfway point) is 103000 nM.
Regarding `C=CCN(C(=O)Cc1ccc(S(=O)(=O)NC)cc1)C1CCN(C[C@H]2CN(C(=O)C3CCCC3)C[C@]2(O)c2ccc(F)cc2)CC1`, the 50% inhibitory concentration (IC50) in series [1] worked out at 11.2 nM. Besides, in series [2], the 50% effective concentration (EC50) was more than 100 nM.
`C=CCN(C(=O)NCc1ccc(S(=O)(=O)N(C)C)cc1)[C@H]1C[C@H]2CC[C@@H](C1)N2C[C@H]1CN(C(=O)C2CCCC2)C[C@]1(O)c1cccc(F)c1`: the IC50 in series [1] was found to be 11.4 nM. This compound returned an EC50 in series [2] of 0.0055 nM. This compound also gave an inhibition at 1 µM against hERG (KCNH2) of 31.3%. In series [3], this compound returned a half-maximal cytotoxic concentration (CC50) of 55000 nM.
As to `C=CCN(C(=O)NCc1ccc(C(F)(F)F)cc1)[C@H]1C[C@H]2CC[C@@H](C1)N2C[C@H]1CN(C(=O)C2CCCC2)C[C@]1(O)c1cccc(F)c1`, the IC50 in series [1] was determined as 6.77 nM. Moreover, the concentration giving a half-maximal response (EC50) in series [2] was less than 0.005 nM. Moreover, testing at 1 µM against hERG (KCNH2) gave an inhibition of 89.5%. This compound gave a CC50 in series [3] of 12500 nM.
Take `C=CCN(C(=O)Cc1ccc(S(=O)(=O)NC)cc1)C1CCN(C[C@H]2CN(C(=O)C3CCCC3)C[C@]2(O)c2cccc(F)c2)CC1`: in series [1], the IC50 was found to be 2.98 nM. Besides, the concentration giving a half-maximal response (EC50) in series [2] amounted to 4.5 nM.
In the case of `C=CCN(C(=O)OCc1ccc([N+](=O)[O-])cc1)C1CCN(C[C@H]2CN(C(=O)C3CCCC3)C[C@]2(O)c2ccccc2)CC1` [NIFEVIROC], the concentration giving a half-maximal response (EC50) in series [2] was less than 0.4 nM.
Consider `C=CCN(C(=O)OCc1ccc([N+](=O)[O-])cc1)C1CCN(C[C@H]2CN(C(=O)C3CCCC3)C[C@]2(O)c2ccc(OC)cc2)CC1`, for which the IC50 in series [1] amounted to 318 nM. In series [2], this compound showed a half-maximal effective concentration (EC50) of more than 100 nM.
The matching figures for `C=CCN(C(=O)NCc1ccc(C(F)(F)F)cc1)C1CCN(C[C@H]2CN(C(=O)C3CCCC3)C[C@]2(O)c2ccc(F)cc2)CC1`: 38.3 nM and 20 nM.
For `C=CCN(C(=O)NCc1ccc(F)cc1)[C@H]1C[C@H]2CC[C@@H](C1)N2C[C@H]1CN(C(=O)C2CCCC2)C[C@]1(O)c1cccc(F)c1`, the IC50 in series [1] is 30 nM. This compound showed an EC50 in series [2] of 1.75 nM. The compound also displayed a half-maximal cytotoxic concentration (CC50) in series [3] of 42000 nM.

For the origin of these results see ChEMBL document CHEMBL1221291, “Studies on the structure-activity relationship of 1,3,3,4-tetra-substituted pyrrolidine embodied CCR5 receptor antagonists. Part 2: Discovery of highly potent anti-HIV agents” (Bioorg Med Chem Lett, 2010).
